According to US11274083B2, “Substituted thiophenyl uracils, salts thereof and the use thereof as herbicidal agents” (Syngenta Crop Protection AG, priority 2017, dated 2022):

Experiments:
Assay type in all cases: in vivo
Digitaria sanguinalis = assay: Herbicidal action post-emergence, greenhouse pot test; conditions: application rate 20 g/ha
Triticum aestivum = assay: Crop compatibility post-emergence, greenhouse pot test
Procedure: (§1) Seeds of mono- and dicotyledonous weed plants and crop plants were laid out in sandy loam soil in plastic or wood-fiber pots, covered with soil and grown under controlled growth conditions in a greenhouse. 2 to 3 weeks after sowing, the trial plants were treated at the one-leaf stage. The compounds of the invention formulated in the form of wettable powders (WP) or as emulsion concentrates (EC) were then sprayed onto the green parts of the plant as an aqueous suspension or emulsion with addition of 0.5% additive at a water application rate equivalent to 600 L/ha. After the trial plants had stood for about 3 weeks in the greenhouse, under optimal growth conditions, the effect of the preparations was scored visually by comparison with untreated controls. For example, 100% efficacy=plants have died, 0% efficacy=like control plants.
(§2) Crop plant compatibilities were also scored correspondingly.
(§3) The effects observed are reported here on selected crop plants by comparison, with the untreated controls (values in %).

Abutilon theophrasti = assay: Herbicidal action post-emergence, greenhouse pot test; conditions: application rate 20 g/ha
Procedure: as §1, with “plants. Tables A1 to A16 below show the efficacies of selected compounds of the general formula (I) according to tables I.1 to I.50 on various harmful plants and an application rate corresponding to 80 g/ha or lower that were obtained by the aforementioned trial method.” for “plants.”

Amaranthus retroflexus = assay: as above; conditions: application rate 20 g/ha
Procedure: as §1, with “plants. Tables A1 to A16 below show the efficacies of selected compounds of the general formula (I) according to tables I.1 to I.50 on various harmful plants and an application rate corresponding to 80 g/ha or lower that were obtained by the aforementioned trial method.” for “plants.”

Stellaria media = assay: as above; conditions: application rate 20 g/ha
Procedure: as §1, with “plants. Tables A1 to A16 below show the efficacies of selected compounds of the general formula (I) according to tables I.1 to I.50 on various harmful plants and an application rate corresponding to 80 g/ha or lower that were obtained by the aforementioned trial method.” for “plants.”

Polygonum convolvulus = assay: as above
Procedure: as §1, with “plants. Tables A1 to A16 below show the efficacies of selected compounds of the general formula (I) according to tables I.1 to I.50 on various harmful plants and an application rate corresponding to 80 g/ha or lower that were obtained by the aforementioned trial method.” for “plants.”

Veronica persica = assay: as above; conditions: application rate 20 g/ha
Procedure: as §1, with “plants. Tables A1 to A16 below show the efficacies of selected compounds of the general formula (I) according to tables I.1 to I.50 on various harmful plants and an application rate corresponding to 80 g/ha or lower that were obtained by the aforementioned trial method.” for “plants.”

Pharbitis purpurea = assay: as above; conditions: application rate 20 g/ha
Procedure: as §1, with “plants. Tables A1 to A16 below show the efficacies of selected compounds of the general formula (I) according to tables I.1 to I.50 on various harmful plants and an application rate corresponding to 80 g/ha or lower that were obtained by the aforementioned trial method.” for “plants.”

Viola tricolor = assay: as above; conditions: application rate 20 g/ha
Procedure: as §1, with “plants. Tables A1 to A16 below show the efficacies of selected compounds of the general formula (I) according to tables I.1 to I.50 on various harmful plants and an application rate corresponding to 80 g/ha or lower that were obtained by the aforementioned trial method.” for “plants.”

Setaria viridis = assay: as above; conditions: application rate 20 g/ha
Procedure: as §1, with “plants. Tables A1 to A16 below show the efficacies of selected compounds of the general formula (I) according to tables I.1 to I.50 on various harmful plants and an application rate corresponding to 80 g/ha or lower that were obtained by the aforementioned trial method.” for “plants.”

Matricaria inodora = assay: as above; conditions: application rate 20 g/ha
Procedure: as §1, with “plants. Tables A1 to A16 below show the efficacies of selected compounds of the general formula (I) according to tables I.1 to I.50 on various harmful plants and an application rate corresponding to 80 g/ha or lower that were obtained by the aforementioned trial method.” for “plants.”

Oryza sativa = assay: Crop compatibility post-emergence, greenhouse pot test
Procedure: as §1, §2, §3

Echinochloa crus-galli = assay: Herbicidal action post-emergence, greenhouse pot test; conditions: application rate 20 g/ha
Procedure: as §1, with “plants. Tables A1 to A16 below show the efficacies of selected compounds of the general formula (I) according to tables I.1 to I.50 on various harmful plants and an application rate corresponding to 80 g/ha or lower that were obtained by the aforementioned trial method.” for “plants.”

Triticum aestivum (Efficacy in %) (Triticum aestivum; application rate 5 g/ha) | Oryza sativa (Efficacy in %) (Oryza sativa; application rate 20 g/ha) | Triticum aestivum (Efficacy in %) (Triticum aestivum; application rate 20 g/ha) | SMILES | Digitaria sanguinalis (Efficacy in %) (Digitaria sanguinalis) | Abutilon theophrasti (Efficacy in %) (Abutilon theophrasti) | Amaranthus retroflexus (Efficacy in %) (Amaranthus retroflexus) | Stellaria media (Efficacy in %) (Stellaria media) | Polygonum convolvulus (Efficacy in %) (Polygonum convolvulus; application rate 5 g/ha) | Veronica persica (Efficacy in %) (Veronica persica) | Pharbitis purpurea (Efficacy in %) (Pharbitis purpurea) | Viola tricolor (Efficacy in %) (Viola tricolor) | Setaria viridis (Efficacy in %) (Setaria viridis) | Matricaria inodora (Efficacy in %) (Matricaria inodora) | Echinochloa crus-galli (Efficacy in %) (Echinochloa crus-galli) | Polygonum convolvulus (Efficacy in %) (Polygonum convolvulus; application rate 20 g/ha) | Oryza sativa (Efficacy in %) (Oryza sativa; application rate 5 g/ha)
 |  |  | CCOC(=O)COC(=O)C(COC)Sc1cc(-n2c(=O)cc(C(F)(F)F)n(C)c2=O)c(F)cc1Cl (centres unmarked) [I.7-43] | 100% |  |  |  |  |  |  |  |  |  |  |  | 
20% |  |  | CC(C)OC(=O)COC(=O)CSc1cc(-n2c(=O)cc(C(F)(F)F)n(C)c2=O)c(F)cc1Cl [I.8-44] |  | 100% | 100% | 100% | 100% | 100% | 100% | 100% | 100% | 100% |  |  | 
10% | 10% |  | CCOC(=O)CCOC(=O)C(C)Sc1cc(-n2c(=O)c(C)c(C(F)(F)F)n(C)c2=O)c(F)cc1Cl (centres unmarked) [I.11-3] |  | 100% |  | 100% |  |  |  | 90% |  | 90% | 100% |  | 
20% |  |  | Cn1c(C(F)(F)F)cc(=O)n(-c2cc(SCC(=O)OCC(=O)OCc3ccccc3)c(Cl)cc2F)c1=O [I.8-46] |  | 100% | 100% | 100% |  | 100% | 100% | 100% | 100% | 100% | 90% | 100% | 
0% |  |  | CCCCOC(=O)COC(=O)C(C)Sc1cc(-n2c(=O)cc(C(F)(F)F)n(C)c2=O)c(F)cc1Cl (centres unmarked) [I.1-51] | 90% | 100% | 100% | 100% |  | 100% | 100% | 100% | 100% | 100% | 100% | 100% | 
 | 0% | 20% | CCCCOC(=O)COC(=O)CSc1cc(-n2c(=O)cc(C(F)(F)F)n(C)c2=O)c(F)cc1Cl [I.8-51] | 100% | 100% | 100% |  |  | 100% | 100% | 100% | 100% | 100% | 90% | 100% | 
10% |  |  | CCOC(=O)COC(=O)CSc1cc(-n2c(=O)cc(C(F)(F)F)n(C)c2=O)c(F)cc1Cl [I.8-43] |  | 100% | 100% | 80% |  | 100% | 100% | 100% | 100% | 100% | 90% | 100% | 
 |  |  | CC(Sc1cc(-n2c(=O)cc(C(F)(F)F)n(C)c2=O)c(F)cc1Cl)C(=O)OCC1CCC(=O)O1 (centres unmarked) [I.1-145] |  |  |  |  |  |  |  |  |  |  |  |  | 20%
